Measured values published in patent publication US20220096431A1, “PHARMACEUTICAL COMPOSITION AND METHOD FOR PREVENTING, TREATING AND DIAGNOSING A NEURODEGENERATIVE DISEASE” (BUDDHIST TZU CHI MEDICAL FOUNDATION, priority 2020, published 2022).
“Also recorded” adds a separate entry of the source.

Test system: 3xTg AD mice
Assay: 18F-FBB PET/CT of amyloid accumulation in the brain of 3xTg mice
Format: in vivo
Protocol: N=4 for wild-type and 10 mg/kg donepezil-treated 3xTg mice. N=6 for vehicle-treated 3xTg mice, 60 mg/kg n-BP-treated 3xTg mice, and 120 mg/kg n-BP-treated 3xTg mice. *p-value<0.05, **p-value<0.01 (Student's t-test). […] After 4-12 months, the B6 (C57/BL6) control mice have no AP accumulation (Green color).
FIGS. 8B and 8C show the comparison of VOI-based 18F-florbetaben SUVR(CTX/CB) and SUVR (HIP/CB) between B6 mice, vehicle-treated 3xTg transgenic, and n-BP-treated mice (60 mg/kg) aged 6 and 12 months. n=4 for B6 mice. n=5 for 3xTg mice. SUVR; standard uptake value ratio, M; months, cerebellum: CB.
The accumulation of amyloid in brain tissues can be detected by using an amyloid tracking agent, 18F-Florbetaben (FBB). 18F-FBB positron emission tomography-computed tomography (PET/CT) was used to explore the effect of n-BP treatment on AP accumulation in the hippocampus and cortex. The accumulation of amyloid will appear red in the picture. The quantity and location of AP accumulation in the brains of mice were determined using the tracking reagent 18F-FBB from birth to 4 to 12 months of age.

CCCC=C1OC(=O)c2ccccc21 [n-BP, n-butylidenephthalide]
Standardized uptake value ratio (SUVR) of FBB in the hippocampus and cortex (120 mg n-BP/kg, age 12 months vs age 6 months): significantly lower
Aβ accumulation in hippocampus and cortex (18F-FBB PET/CT) (3xTg AD mice, oral n-BP 60 or 120 mg/kg): less AP accumulation; also recorded: low levels of amyloid accumulation
